Legend:
[1] = Selectivity index, ratio of LC50 for mouse NCTC-929 cells to IC50 for epimastigotes of Trypanosoma cruzi CL Brener; assay type: toxicity, cell-based; settings: read-out: Ratio LC50/IC50
[2] = Cytotoxicity against mouse NCTC-929 cells at 256 uM after 48 hrs by resazurin based fluorescence assay; assay type: cell-based; settings: nctc-929, 48 h
Trypanosoma cruzi [3] = experiment: Antiparasitic activity against epimastigotes of Trypanosoma cruzi CL Brener expressing Escherichia coli lacZ gene […] assessed as parasite growth inhibition after 72 hrs by colorimetric assay; assay type: functional, organism-based
Trypanosoma cruzi [4] = experiment: Antiparasitic activity against epimastigotes of Trypanosoma cruzi CL Brener expressing Escherichia coli lacZ gene […] assessed as parasite growth inhibition at 32 uM after 72 hrs by colorimetric assay; assay type: functional; set-up: scale not given: the % may be the effect or the level left
[5] = Cytotoxicity against mouse NCTC-929 cells after 48 hrs by resazurin based fluorescence assay; assay type: cell-based; settings: for CC50 at 48 h: NCTC-929 cells, read-out: LC50; for LC50: nctc-929, 48 h
[6] = Selectivity index, ratio of LC50 for mouse NCTC-929 cells to IC50 for amastigotes of Trypanosoma cruzi CL Brener; assay type: toxicity, cell-based; settings: read-out: Ratio LC50/IC50
Trypanosoma cruzi [7] = experiment: Antiparasitic activity against amastigotes of Trypanosoma cruzi CL Brener expressing Escherichia coli lacZ gene infected in mouse NCTC-929 cells assessed as parasite growth inhibition after 7 days by colorimetric assay; assay type: functional, organism-based; settings: NCTC-929, 168 h
Trypanosoma cruzi [8] = experiment: Antiparasitic activity against amastigotes of Trypanosoma cruzi CL Brener expressing Escherichia coli lacZ gene infected in mouse NCTC-929 cells assessed as parasite growth inhibition at 16 uM after 7 days by colorimetric assay; assay type: functional; set-up: scale not given: the % may be the effect or the level left
Trypanosoma cruzi [9] = experiment: Antiparasitic activity against amastigotes of Trypanosoma cruzi CL Brener expressing Escherichia coli lacZ gene infected in mouse NCTC-929 cells assessed as parasite growth inhibition at 8 uM after 7 days by colorimetric assay; assay type: functional; set-up: scale not given: the % may be the effect or the level left
Trypanosoma cruzi [10] = experiment: Antiparasitic activity against amastigotes of Trypanosoma cruzi CL Brener expressing Escherichia coli lacZ gene infected in mouse NCTC-929 cells assessed as parasite growth inhibition at 32 uM after 7 days by colorimetric assay; assay type: functional; set-up: scale not given: the % may be the effect or the level left
Trypanosoma cruzi [11] = experiment: Antiparasitic activity against amastigotes of Trypanosoma cruzi CL Brener expressing Escherichia coli lacZ gene infected in mouse NCTC-929 cells assessed as parasite growth inhibition at 1 uM after 7 days by colorimetric assay; assay type: functional; set-up: scale not given: the % may be the effect or the level left
Trypanosoma cruzi [12] = experiment: Antiparasitic activity against amastigotes of Trypanosoma cruzi CL Brener expressing Escherichia coli lacZ gene infected in mouse NCTC-929 cells assessed as parasite growth inhibition at 0.5 uM after 7 days by colorimetric assay; assay type: functional; set-up: scale not given: the % may be the effect or the level left
Trypanosoma cruzi [13] = experiment: Antiparasitic activity against amastigotes of Trypanosoma cruzi CL Brener expressing Escherichia coli lacZ gene infected in mouse NCTC-929 cells assessed as parasite growth inhibition at 2 uM after 7 days by colorimetric assay; assay type: functional; set-up: scale not given: the % may be the effect or the level left
Trypanosoma cruzi [14] = experiment: Antiparasitic activity against amastigotes of Trypanosoma cruzi CL Brener expressing Escherichia coli lacZ gene infected in mouse NCTC-929 cells assessed as parasite growth inhibition at 4 uM after 7 days by colorimetric assay; assay type: functional; set-up: scale not given: the % may be the effect or the level left

Row | SMILES | selectivity ratio [1] | Activity [2] | IC50 (Trypanosoma cruzi [3]) [µM] | Activity (Trypanosoma cruzi [4]) [%] | CC50 at 48 h [5] [µM] | selectivity ratio [6] | IC50 (Trypanosoma cruzi [7]) [µM] | Activity (Trypanosoma cruzi [8]) [%] | Activity (Trypanosoma cruzi [9]) [%] | Activity (Trypanosoma cruzi [10]) [%] | Activity (Trypanosoma cruzi [11]) [%] | Activity (Trypanosoma cruzi [12]) [%] | Activity (Trypanosoma cruzi [13]) [%] | Activity (Trypanosoma cruzi [14]) [%] | LC50 [5]
1 | COc1ccc([C@@H]2c3cc(Cl)ccc3N(Cc3ccccc3)C[C@H]2C)cc1 | 3.69 | ND(Insoluble) | 6.39 | 100 | 23.6 |  |  |  |  |  |  |  |  |  | 
2 | COc1ccc([C@@H]2c3cc(OC)ccc3N[C@H](c3ccccc3)[C@H]2C)cc1 | > 32 | 0% | < 8 | 53.99 | > 256 | > 32 | < 8 | 60.71 | 58.12 |  |  |  |  |  | 
3 | COc1cc([C@@H]2c3cccc([N+](=O)[O-])c3N[C@H](c3ccc(O)cc3)[C@H]2C)ccc1O | > 1.79 | 85.46% | < 8 | 99.73 | 14.4 |  |  |  |  |  |  |  |  |  | 
4 | COc1cc([C@@H]2c3ccccc3N[C@H](c3ccccc3)[C@H]2C)ccc1O | > 1.63 | 84.12% | < 8 | 86.23 | 13 |  |  |  |  |  |  |  |  |  | 
5 | COc1cc([C@@H]2c3cccc(N)c3N[C@H](c3ccccc3)[C@H]2C)ccc1O |  | 86.9% | < 8 | 98.7 | < 8 |  |  |  |  |  |  |  |  |  | 
6 | COc1cc([C@@H]2c3cccc([N+](=O)[O-])c3N[C@H](c3ccc([N+](=O)[O-])cc3)[C@H]2C)ccc1O |  | 87.71% | < 8 | 92.82 | < 8 |  |  |  |  |  |  |  |  |  | 
7 | COc1ccc([C@@H]2c3c(cccc3[N+](=O)[O-])N[C@H](c3ccccc3)[C@H]2C)cc1 | > 3.45 | ND(Insoluble) | < 8 | 78.69 | 27.6 |  |  |  |  |  |  |  |  |  | 
8 | COc1ccc([C@@H]2c3ccccc3N[C@H](c3ccccc3)[C@H]2C)cc1 | > 43.1 | 43.05% | 5.94 | 95.98 | > 256 | > 36 | 7.1 | 99.12 | 52.21 | 100 |  |  |  |  | 
9 | O=C(Cn1ccnc1[N+](=O)[O-])NCc1ccccc1 [BENZNIDAZOLE] | > 9.44 | 17.38% | 27.1 | 66.24 | > 256 | > 320 | 0.8 | 100 | 96.63 | 100 | 55.64 | 41.64 | 64.37 | 74.71 | 
10 | CCc1ccc2c(c1)[C@@H](c1ccc(OC)cc1)[C@H](C)[C@@H](c1ccccc1)N2 | > 71.1 | 0% | 3.6 | 95.85 | > 256 | > 35.9 | 7.13 | 47.35 | 58.63 | 63.72 |  |  |  | 19.11 | 
11 | COc1ccc([C@@H]2c3cc([N+](=O)[O-])ccc3N[C@H](c3ccccc3)[C@H]2C)cc1 | > 2 | ND(Insoluble) | < 8 | 76.03 | 16 |  |  |  |  |  |  |  |  |  | 
12 | COc1cc([C@@H]2c3cccc(C#N)c3N[C@H](c3ccc(O)cc3)[C@H]2C)ccc1O | 1.59 | 85.83% | < 8 | 98.75 | 12.8 |  |  |  |  |  |  |  |  |  | 
13 | COc1cc([C@@H]2c3cccc([N+](=O)[O-])c3N[C@H](c3ccccc3[N+](=O)[O-])[C@H]2C)ccc1O |  | ND(Insoluble) |  | 82.19 | 15.9 |  |  |  |  |  |  |  |  |  | 
14 | COc1ccc([C@@H]2c3cc(N)ccc3N[C@H](c3ccccc3)[C@H]2C)cc1 | > 1.19 | 85.85% | < 8 | 97.06 | 9.56 |  |  |  |  |  |  |  |  |  | 
15 | COc1cc([C@@H]2c3cccc([N+](=O)[O-])c3N[C@H](c3ccccc3)[C@H]2C)ccc1O |  | 84.75% | < 8 | 86.78 | < 8 |  |  |  |  |  |  |  |  |  | 
16 | COc1cc([C@@H]2c3cccc(C#N)c3N[C@H](c3ccccc3)[C@H]2C)ccc1O | 0.93 | 86.23% | 8.29 | 95.56 | 7.75 |  |  |  |  |  |  |  |  |  | 
17 | COc1ccc([C@@H]2c3ccccc3N(Cc3ccccc3)C[C@H]2C)cc1 |  | 42.15% |  | 14.08 |  |  |  |  |  |  |  |  |  |  | ND(Insoluble)
18 | COc1ccc([C@@H]2c3ccc([N+](=O)[O-])cc3N[C@H](c3ccccc3)[C@H]2C)cc1 |  | 8.43% | < 8 | 83.67 |  |  |  |  |  |  |  |  |  |  | ND(Insoluble)
19 | COc1cc([C@@H]2c3cccc(C#N)c3N[C@H](c3ccc([N+](=O)[O-])cc3)[C@H]2C)ccc1O | 48.6 | 48.76% | 4.38 | 66.81 | 213 | 27.8 | 7.66 |  | 51.5 |  |  |  |  | 33.77 | 
20 | COc1ccc([C@@H]2c3cccc([N+](=O)[O-])c3N[C@H](c3ccccc3)[C@H]2C)cc1 |  | ND(Insoluble) |  | 87.22 | 28.4 |  |  |  |  |  |  |  |  |  | 
21 | COc1ccc([C@@H]2c3cc(OC)ccc3N(Cc3ccccc3)C[C@H]2C)cc1 | > 33.4 | 25.02% | 7.67 | 88.64 | > 256 | > 59.9 | 4.27 | 100 | 100 | 100 |  |  | 25.86 | 46.33 | 
22 | COc1ccc([C@@H]2c3cccc(N)c3N[C@H](c3ccccc3)[C@H]2C)cc1 |  | 66.33% | < 8 | 79.95 |  |  |  |  |  |  |  |  |  |  | ND(Insoluble)
23 | COc1ccc([C@@H]2c3cc(Cl)ccc3N[C@H](c3ccccc3)[C@H]2C)cc1 |  | 11.72% | 7.86 | 88.62 |  |  |  |  |  |  |  |  |  |  | ND(Insoluble)

Reference: ChEMBL document CHEMBL2417513, “Selective activity of 2,4-diaryl-1,2,3,4-tetrahydroquinolines on Trypanosoma cruzi epimastigotes and amastigotes expressing β-galactosidase” (Bioorg Med Chem Lett, 2013)
